Experiments:
Smn protein [1] = test: Smn protein assay in cultured cells (SMN HTRF); type: cell-based, human; settings: for Smn protein expression: SMA Type 1 patient fibroblast cells, 48 hour, SMN HTRF assay, FIG. 8; for EC1.5x for Smn protein expression / maximum fold (Fold) increase of Smn protein: SMA patient fibroblast cells (GM03813), 48 hours; for EC1.5x for Smn protein expression: 7-point concentration curve, concentration producing 1.5 times Smn protein vs DMSO vehicle; for maximum fold (Fold) increase of Smn protein: 7-point concentration data, relative to vehicle control
Summary of the method: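 SMA patient fibroblasts, 5,000 per well in DMEM-10% FBS, exposed 48 h at 37° C. to a 7-point, 3.16-fold compound series in triplicate. RIPA lysates read by SMN HTRF (665/620 nm, overnight at room temperature); ΔF over blank expressed as fold of vehicle.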

Smn protein [2] = test: Smn protein levels in tissues of Δ7 SMA mice of the survival study; type: in vivo; settings: Compound 65 until PND 144, Compound 69 until PND 80 and PND 83, relative to vehicle treated and age-matched heterozygous mice, FIG. 16
Procedure: The tissue samples in Safe-Lock tubes are weighed and the volume of RIPA buffer containing the protease inhibitor cocktail is added based on the weight to volume ratios for each type of tissue: Brain (50 mgmL), Muscle (50 mgmL) and Spinal Cord (25 mgmL).
Tissues are homogenized using the TissueLyzer by bead milling. 5 mm stainless steel beads are added to the sample and shaken vigorously for 5 minutes at 30 Hz in the TissueLyzer. The samples are then centrifuged for 20 minutes at 14,000×g in a microcentrifuge and the homogenates transferred to the PCR plate. The homogenates are diluted in RIPA buffer to approximately 1 mgmL for HTRF and approximately 0.5 mgmL for total protein measurement using the BCA protein assay. […] Fluorescence for each well of the plate at 665 nm and 620 nm is measured on an EnVision multilabel plate reader (Perkin-Elmer). The total protein in the tissue homogenate is measured using the BCA assay according to the manufacturer's protocol.
The normalized fluorescence signal is calculated for each sample, Blank and vehicle control well by dividing the signal at 665 nm by the signal at 620 nm. Normalizing the signal accounts for possible fluorescence quenching due to the matrix effect of the tissue homogenate. […] The ΔF value for each tissue sample well is divided by the total protein quantity (determined using the BCA assay) for that tissue sample. […]

| Structure (SMILES) | Smn protein expression (Smn protein [1]) | EC1.5x for Smn protein expression (Smn protein [1]) | maximum fold (Fold) increase of Smn protein (Smn protein [1]) | Smn protein expression in brain and muscle tissues (Smn protein [2]) |
| --- | --- | --- | --- | --- |
| Cc1cn2cc(-c3cc4ccc(N5CCN(C)CC5)cc4c(=O)o3)nc2c(C)n1 [Cpd 65, 3-(6,8-dimethylimidazo[1,2-a]pyrazin-2-yl)-7-(4-methylpiperazin-1-yl)-1H-isochromen-1-one] | dose dependent increase in Smn protein expression | **** (an EC1.5×≦0.3 nM is indicated by four stars (****)) | ***** (a fold increase >1.65 is indicated by five stars (*****)) | increased Smn protein expression in brain and muscle tissues |
| Cc1cn2cc(-c3cc4ccc(N5CCN6CCC[C@H]6C5)cc4c(=O)o3)nc2c(C)n1 [Cpd 69, 3-(6,8-dimethylimidazo[1,2-a]pyrazin-2-yl)-7-[(8aS)-hexahydropyrrolo[1,2-a]pyrazin-2(1H)-yl]-1H-isochromen-1-one] | dose dependent increase in Smn protein expression | **** (an EC1.5×≦0.3 nM is indicated by four stars (****)) | ***** (a fold increase >1.65 is indicated by five stars (*****)) | increased Smn protein expression in brain and muscle tissues |

— patent US9399649B2, “Compounds for treating spinal muscular atrophy” (PTC Therapeutics Inc., priority 2012, dated 2016)
